Experimental data as given in US8940310B2, “Methods of treatment using TLR7 and/or TLR9 inhibitors” (Dynavax Technologies Corporation, priority 2010, dated 2015).
Marks after values point to notes of the source that are not given here.

Test: High dosages of IRPs in mice (weight, histology)
Format: in vivo, BALB/c mice
Settings: ISS control (5 mg/kg)
Description: To test the activity of IRPs at high dosages in mice, IRPs or a control (saline) were subcutaneously administered to BALB/c mice at a dosage of 4 mg/kg, 20 mg/kg, 50 mg/kg, or 100 mg/kg on days 1, 4, 7, and 10 (n=5 per group). Mice were weighed prior to administration and on days 2, 4, 7, 9, and 11. Serum cytokines were assayed at two hours post the first and third injections and 24 hours post the fourth injection. Organs were harvested at the end of the study, and organ weights and tissues levels of the oligonucleotides were determined. In addition, histological evaluation of the liver, kidney, and heart was performed.
Mice were weighed prior to administration and on days 1, 3, 4, 6, 7, and 9. Organs were harvested at the end of the study, and organ weights and tissues levels of the oligonucleotides were determined. In addition, histological evaluation of the liver, kidney, and heart was performed.

Substance: 5′-TGACTGTGAACGTTCGAGATGA-3′ [SEQ ID NO:157, reference compound]
- Heart: Chronic inflammation, number of animals: 2
- Heart: Mineralization, number of animals: 1
- Heart: Chronic inflammation, mean severity score (0 = no change to 4 = severe): 2.0
- Heart: Mineralization, mean severity score (0 = no change to 4 = severe): 4.0
- Liver: Liver changes, mean severity score (0 = no change to 4 = severe): 2.0
- Liver: Mixed cell infiltration, mean severity score (0 = no change to 4 = severe): 3.0
- Right Kidney: Tubular basophilia, mean severity score (0 = no change to 4 = severe): 2.0
- Liver: Liver changes, number of animals (6 animals): 6
- Liver: Mixed cell infiltration, number of animals (6 animals): 6
- Liver: No significan changes, number of animals (6 animals): 0
- Right Kidney: No significant changes, number of animals (6 animals): 5
- Right Kidney: Tubular basophilia, number of animals (6 animals): 1
- Right Kidney: Tubular changes, number of animals (6 animals): 0
- Heart: No significant changes, number of animals (tissue missing in two animals): 1**
